Article PMC4819940 (Cancer Chemotherapy and Pharmacology, 2016)

Tested on: advanced solid tumors in Japanese patients
Experiment: Objective tumor response (RECIST version 1.1)
Format: in vivo, human
Conditions: for Best objective response: Non-response, Not evaluable / Best objective response: Non-response, RECIST progression / Best objective response: Non-response, Stable disease ≥6 weeks / Best objective response: Complete response / Best objective response: Partial response: patients, count (%); for Best objective response: Complete response / Best objective response: Partial response: response confirmed after 4 weeks; for time to partial response after starting AZD5363: Akt1 (E17K) positive; for duration of partial response at data cutoff: data cutoff July 7, 2014
Description: Objective tumor response assessments were based on Response Evaluation Criteria in Solid Tumors (RECIST) version 1.1.
Tumor samples were screened for mutations using a clinical sequencing platform consisting of an in-house cancer gene panel (National Cancer Center OncoPanel version 2) based on an Agilent Sure Select system and an Illumina MiSeq sequencer. The target regions to be captured were the exons of 90 targetable or actionable genes and the introns of 10 protein kinase genes. Samples with <10 % tumor cell content were excluded from the analysis.

[1] = breast cancer patient, 640 mg bid intermittent 2/5
[2] = ovarian cancer patient, 480 mg bid intermittent 4/3

With `NC1(C(=O)N[C@@H](CCO)c2ccc(Cl)cc2)CCN(c2ncnc3[nH]ccc23)CC1` [AZD5363] the “Best objective response: Non-response, Not evaluable” value (80 mg bid continuous) was 0 (0.0), the “Best objective response: Non-response, RECIST progression” value (80 mg bid continuous) was 1 (33.3) and the “Best objective response: Non-response, Stable disease ≥6 weeks” value (80 mg bid continuous) was 2 (66.7). For the same molecule, the “Best objective response: Complete response” value (80 mg bid continuous) was 0 (0.0), the “Best objective response: Partial response” value (80 mg bid continuous) was 0 (0.0) and the “Best objective response: Non-response, Not evaluable” value (240 mg bid continuous) was 1 (14.3). The “Best objective response: Non-response, RECIST progression” value (240 mg bid continuous) was 5 (71.4), the “Best objective response: Non-response, Stable disease ≥6 weeks” value (240 mg bid continuous) was 1 (14.3) and the “Best objective response: Complete response” value (240 mg bid continuous) was 0 (0.0). For the same molecule, the “Best objective response: Partial response” value (240 mg bid continuous) was 0 (0.0), the “Best objective response: Non-response, Not evaluable” value (320 mg bid continuous) was 2 (66.7) and the “Best objective response: Non-response, RECIST progression” value (320 mg bid continuous) was 1 (33.3). The “Best objective response: Non-response, Stable disease ≥6 weeks” value (320 mg bid continuous) was 0 (0.0), the “Best objective response: Complete response” value (320 mg bid continuous) was 0 (0.0) and the “Best objective response: Partial response” value (320 mg bid continuous) was 0 (0.0). For the same molecule, the “Best objective response: Non-response, Not evaluable” value (360 mg bid intermittent 4/3) was 2 (25.0), the “Best objective response: Non-response, RECIST progression” value (360 mg bid intermittent 4/3) was 3 (37.5) and the “Best objective response: Non-response, Stable disease ≥6 weeks” value (360 mg bid intermittent 4/3) was 3 (37.5). The “Best objective response: Complete response” value (360 mg bid intermittent 4/3) was 0 (0.0), the “Best objective response: Partial response” value (360 mg bid intermittent 4/3) was 0 (0.0) and the “Best objective response: Non-response, Not evaluable” value (400 mg bid continuous) was 1 (25.0). For the same molecule, the “Best objective response: Non-response, RECIST progression” value (400 mg bid continuous) was 3 (75.0), the “Best objective response: Non-response, Stable disease ≥6 weeks” value (400 mg bid continuous) was 0 (0.0) and the “Best objective response: Complete response” value (400 mg bid continuous) was 0 (0.0). The “Best objective response: Partial response” value (400 mg bid continuous) was 0 (0.0), the “Best objective response: Non-response, Not evaluable” value (480 mg bid intermittent 4/3) was 0 (0.0) and the “Best objective response: Non-response, RECIST progression” value (480 mg bid intermittent 4/3) was 1 (16.7). For the same molecule, the “Best objective response: Non-response, Stable disease ≥6 weeks” value (480 mg bid intermittent 4/3) was 4 (66.7), the “Best objective response: Complete response” value (480 mg bid intermittent 4/3) was 0 (0.0) and the “Best objective response: Partial response” value (480 mg bid intermittent 4/3) was 1 (16.7). For the same molecule, the “Best objective response: Non-response, Not evaluable” value (640 mg bid intermittent 2/5) was 1 (16.7), the “Best objective response: Non-response, RECIST progression” value (640 mg bid intermittent 2/5) was 4 (66.7) and the “Best objective response: Non-response, Stable disease ≥6 weeks” value (640 mg bid intermittent 2/5) was 0 (0.0). For the same molecule, the “Best objective response: Complete response” value (640 mg bid intermittent 2/5) was 0 (0.0), the “Best objective response: Partial response” value (640 mg bid intermittent 2/5) was 1 (16.7) and the “Best objective response: Non-response, Not evaluable” value (Total) was 7 (18.9). The “Best objective response: Non-response, RECIST progression” value (Total) was 18 (48.6), the “Best objective response: Non-response, Stable disease ≥6 weeks” value (Total) was 10 (27.0) and the “Best objective response: Complete response” value (Total) was 0 (0.0). For the same molecule, the “Best objective response: Partial response” value (Total) was 2 (5.4), the “patients with confirmed partial response” value (all cohorts, both Akt1 (E17K) mutation positive) was “two” and the “best response, decrease in the SLD of target lesions” value [1] was 60.8%. The “day on which progression was confirmed” value [1] was 378 days, the “time to partial response after starting AZD5363” value [1] was 44 days and the “patients with stable disease for 12 weeks or more” value (of the 10 patients with stable disease) was “Seven”. For the same molecule, the “time partial response was maintained” value (one patient in the 480 mg bid 4/3 dosing cohort) was greater than 2 years, the “best response, decrease in the sum of the longest diameter (SLD) of target lesions” value [2] was 55.8% and the duration of response (ovarian cancer patient, 480 mg bid intermittent 4/3, as of September 2015, according to the investigator) was 1177 days. The “time to partial response after starting AZD5363” value [2] was 79 days, the “duration of partial response at data cutoff” value (patient in the 480 mg bid intermittent 4/3 cohort) was 675 days and the “duration of partial response at data cutoff” value (patient in the 640 mg bid intermittent 2/5 cohort) was 127 days. The “patients with stable disease” value (three on continuous dosing and seven on intermittent dosing) was “Ten”, the “patients with a complete response” value (tumor response analysis set) was “no patients” and the “patients with disease progression” value (tumor response analysis set, 37 patients) was 48.6%. The “response of PIK3CA mutation positive patients to AZD5363 treatment” value (two additional patients identified as PIK3CA mutation positive) was “did not respond”.
